One data set addresses T1, human isoQC (Homo sapiens, UniProt Q9NXS2).
T1 construct: The Golgi luminal, enzymatically active region of human isoQC (S53-L382; see, e.g., Huang et al., 2011); GST (with enterokinase site) (N, cleaved yes); made in house; host or cells: E. coli
Put plainly: Assay 1 - isoQC potency, fluorescent enzymatic assay (H-Gln-AMC, coupled pGAPase detection). It counts as biochemical. The settings on record: recombinant isoQC, 1 hour at 37°C. The text has this: The Golgi luminal, enzymatically active region of human isoQC (S53-L382; see, e.g., Huang et al., 2011) was obtained by expression in E. coli of an N-terminally GST Enterokinase and C-terminally 6xHis tagged construct in the pET41(+) vector and subsequent purification using Ni-NTA IMAC. Enterokinase digestion ensued, followed by another Ni-NTA IMAC purification, Superdex75 based size exclusion and finally a spin concentration using a 10 kDa molecular weight cutoff. The final protein is formulated in 50 mM Tris-HCl, 150 mM NaCl, 50% Glycerol, pH 7.8.
(§1) Pyroglutamylation was measured by conversion of glutamine-4-amino-7-methylcoumarine (H-Gln-AMC, Bachem) to pyroglutamyl-AMC, which is subsequently a specific substrate for pyroglutamylaminopeptidase (pGAPase, Qiagen), releasing free AMC which can be fluorescently detected. For a typical inhibition assay, 7.5 µL aliquots of threefold dilutions of test compound in 50mM Tris pH8 buffer were plated in 384-well plates. 15 µL 20 µM hGln-AMC (diluted from a 40 mM stock dissolved in 25 mM HEPES using 50 mM Tris-HCl 25 pH 8.0) was added to each well. Finally, 7.5 µL, 3 ng/µL recombinant isoQC enzyme was added and the reaction mixture was incubated for 1 hour at 37°C. A 5 minute incubation at 98°C was then performed to denature the isoQC enzyme and stop the reaction.
To detect the amount of pyroglutamyl-AMC formed, a 0.125 U/mL pGAPase enzyme diluted in 50 mM Tris-HCl pH 8.0 containing 10 mM dithiothreitol (DTT) solution was prepared. 25 µL of the pyroglutamylation reaction mixture was transferred into an empty plate and to that, 25 µL of the pGAPase enzyme solution was added. Plates were then incubated for 25 minutes at room temperature before fluorescence readings were taken on an Envision2 plate reader with excitation set at 380 nm and emission at 450 nm. DMSO concentrations during the assay never exceeded 1% and activities were compared to controls containing only the same amount of DMSO and no test compound. Controls were taken along containing pyroglutamylated-AMC (Bachem, dissolved at 10 mM in DMSO) instead of H-Gln-AMC to control for pGAPase inhibition.
(§2) IC50 values are calculated using non-linear regression analysis with GraphPad Prism software.

The target in a further data set is T2, recombinant QC enzyme (Homo sapiens, UniProt Q16769).
T2 construct: bacterial expression of residues 33-361 of uniprot ID Q16769, fused to a His tag; His tag (cleaved yes); made in house
T2 sequence (Q16769 33-361): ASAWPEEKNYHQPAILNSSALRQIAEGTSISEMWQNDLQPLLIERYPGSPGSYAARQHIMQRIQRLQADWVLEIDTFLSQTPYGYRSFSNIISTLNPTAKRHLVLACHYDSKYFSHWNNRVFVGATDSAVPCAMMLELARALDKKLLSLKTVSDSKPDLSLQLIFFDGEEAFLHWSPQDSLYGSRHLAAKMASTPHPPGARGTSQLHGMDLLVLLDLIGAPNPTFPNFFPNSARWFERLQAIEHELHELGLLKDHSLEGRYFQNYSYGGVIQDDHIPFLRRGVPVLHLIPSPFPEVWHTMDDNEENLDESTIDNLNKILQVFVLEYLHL
Put plainly: Assay 2 - QC potency, fluorescent enzymatic assay (H-Gln-AMC, coupled pGAPase detection). The data set is classed as biochemical. The settings on record: 1 hour at 37°C. The method, then: After scale-up, expression and lysis, protein was purified by Ni-NTA IMAC, dialysed in the presence of Factor Xa, further purified by Ni-NTA reverse IMAC and finally filtrated for size on a Superdex 200 16/60 column. Final protein was concentrated using a spin concentrator at 10 kDa molecular weight cut-off and formulated in 150 mM NaCl, 50 mM Tris-HCl, 50% Glycerol, pH 8.0.
as §1, with “50 mM” for “50mM”, “h-Gln-AMC” for “hGln-AMC”, “Tris-HCl” for “Tris-HCl 25”, “QC” for “isoQC”
25 µL of the pyroglutamylation reaction mixture was transferred into an empty plate and to that, 25 µL of the pGAPase enzyme solution was added. Plates were then incubated for 25 minutes at room temperature before fluorescence readings were taken on an Envision2 plate reader with excitation set at 380 nm and emission at 450 nm.
Controls were taken along containing pyroglutamylated-AMC (Bachem, dissolved at 10 mM in DMSO) instead of H-Gln-AMC to control for pGAPase inhibition.
as §2

The nature of data set [1]: CACO-2-based cell-permeation and efflux. The data set is classed as in vitro ADME. The conditions noted are these: human, 2 µM compound, pH 7.40. The method, then:
CACO-2 (ATCC, Manassas, VA, USA) monolayers on polyethylene membranes in 96-well insert plates were incubated for 2 hours in 5% C02, 37°C with 2 µM compound tested bidirectionally in duplicate using HBSS with 10 mM HEPES at pH 7.40 ±0.05 as transport buffer. Final DMSO Concentrations were adjusted to less than 1%. All samples were mixed with acetonitrile containing internal standard and centrifuged at 3220 x g for 10 minutes. Subsequently, 100 µL supernatant solution was diluted with 100 µL distilled water for LC/MS/MS analysis. Lucifer yellow rejection assays were applied after the transport assay to ensure CACO-2 cell monolayer integrity.
The apparent permeability coefficient Papp (cm/s) was calculated using the equation: Papp = (dCr/dt) × Vr/(A×CO) [formula] where dCr/dt is the cumulative concentration of compound in the receiver chamber as a function of time (µM/s); Vr is the solution volume in the receiver chamber (0.075 mL on the apical side, 0.25 mL on the basolateral side); A is the surface area for the transport, i.e., 0.0804 cm^2 or the area of the monolayer; CO is the initial concentration in the donor chamber (µM).
In general terms: Caco-2 monolayers are a common model of the intestinal barrier.

Data set [2] in a line: Microsomal stability, mouse (MLM). It counts as in vitro ADME, CD-1 mouse. The conditions noted are these: mouse liver microsomes, 0.5 mg protein/mL, 1 µM test compound. The protocol: (§3) In order to assess metabolic stability of test compounds, commercially acquired CD-1 mouse liver microsome preparations were incubated in 100 µL at a final concentration of 0.5 mg protein/mL, 1 µM test compound, 0.99% methanol and 0.01% DMSO, after a 10 minute pre-incubation at 37°C and addition of 0.1 volumes 10 U/mL NADPH in 10 mM MgCl2. Reactions were stopped by addition of 300 µL cold acetonitrile containing internal standards at t = 0, 5, 10, 20, 30, and 60 minutes. Samples were submitted to LC-MS/MS analysis subsequently and the slope of linear regression of time versus In(% Remaining concentration) was derived to calculate t½ as t½= In(2) /(-Slope). Then Clint(mic) and Clint(liver) were calculated as follows: CLint(mk) = (0.693)/(In vitro T1/2) · (1)/(mg/mL microsomal protein in reaction system) [formula] CLint(liver) = CLint(mic) · (mg microsomes)/(g liver) · (g liver)/(kg body weight) [formula]
Where 45 mg microsomal protein/g liver and 88 g liver/kg mouse bodyweight were used as standardized parameters for mouse microsomes.
For orientation: Liver microsomes are a subcellular fraction often used to study metabolism.

A short description of data set [3]: Microsomal stability, human (HLM). The data set is classed as in vitro ADME. The conditions noted are these: liver microsomes, 0.5 mg protein/mL, 1 µM test compound. The method, then:
as §3
(§4) The same procedure was performed for human microsomes, SD rat microsomes and (beagle) dog microsomes.
Where 45 mg microsomal protein/g liver and 20 g liver/kg human bodyweight were used as standardized parameters for human microsomes.

A short description of data set [4]: Microsomal stability, rat (RLM). The data set is classed as in vitro ADME. The settings on record: liver microsomes; SD rat microsomes, 0.5 mg protein/mL, 1 µM test compound. The method, then:
as §3, §4
Where 45 mg microsomal protein/g liver and 40 g liver/kg rat bodyweight were used as standardized parameters for rat microsomes.

The nature of data set [5]: Microsomal stability, dog (DLM). It counts as in vitro ADME. The settings on record: liver microsomes; (beagle) dog microsomes, 0.5 mg protein/mL, 1 µM test compound. The protocol: as §3, §4
Where 45 mg microsomal protein/g liver and 32 g liver/kg dog bodyweight were used as standardized parameters for […].

A short description of the next data set: Kinetic solubility. The data set is classed as physicochemical. The conditions noted are these: aqueous buffer; 50 mM phosphate buffer (pH 7.4), 24 hours at room temperature. The method, then:
To assess the solubility of test compounds 10 µL of a 10 mM solution in DMSO was added to the lower chamber of a whatman miniuniprep (PTFE Filter Media with Polypropylene Housing) vial. 490 µL of 50 mM phosphate buffer (pH 7.4) was added to the lower chamber, the samples were vortexed for at least two minutes and then shaken on a shaker for 24 hours at room temperature at the speed of 880 rpm. The samples were then centrifuged for 20 minutes at 4000 rpm, compressed and the filtrates were injected into a HPLC-UV and LC-MS/MS system to calculate the concentration compared to the standard curve using a ACQUITY UPLC BEH C18 1.7 µm 2.1 * 50 mm column.

The record followed here is patent EP4455142A1, “NOVEL INHIBITOR OF QPCTL AND/OR QC” (Scenic Immunology B.V., priority 2023, dated 2024).

What is called IC50 is the concentration at which inhibition is half-maximal. The Papp A→B is the apparent permeability from the apical to the basolateral side of a cell layer. In general, Papp B→A refers to the apparent permeability from the basolateral to the apical side of a cell layer. What is called CLint scaled is the capacity of the preparation to metabolise the compound, expressed as a volume cleared per time. Low readings indicate greater metabolic stability, high ones faster metabolism. As a reminder, the solubility is the concentration that dissolves in the medium under given conditions. High values mean a readily soluble substance, low ones a poorly soluble substance.

SMILES strings stand for the structures. Converted amounts (≈) assume the structure as drawn.

T1 sequence (Q9NXS2 53-382): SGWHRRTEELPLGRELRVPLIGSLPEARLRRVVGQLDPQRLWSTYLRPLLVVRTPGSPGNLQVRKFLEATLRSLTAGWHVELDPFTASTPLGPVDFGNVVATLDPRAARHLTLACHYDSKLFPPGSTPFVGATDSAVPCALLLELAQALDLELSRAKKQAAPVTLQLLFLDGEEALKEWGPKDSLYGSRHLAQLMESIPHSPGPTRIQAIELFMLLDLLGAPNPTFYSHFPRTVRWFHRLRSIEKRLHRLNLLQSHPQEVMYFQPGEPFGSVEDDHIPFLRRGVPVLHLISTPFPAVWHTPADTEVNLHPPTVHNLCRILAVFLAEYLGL

As for `O=C1OCC(c2cc(F)cc(C(F)(F)F)c2)N1c1ccc2[nH]cnc2c1` (single isomer, unassigned) [(17)-ent2], the values for the IC50 on human isoQC and at recombinant QC enzyme were 632 nM and 1080 nM, respectively. Further, the Papp A→B at 2 h, 2 µM in data set [1] (Caco-2, pH 7.4, A2B) worked out at 1.5 ×10⁻⁶ cm/s. The compound also yielded a Papp B→A at 2 h, 2 µM in data set [1] (Caco-2, pH 7.4, B2A) of 36.8 ×10⁻⁶ cm/s. The CLint scaled at 1 µM in data set [2] was 182 mL/min/kg; in data set [3] it was < 8.6 mL/min/kg; in data set [4], 49 mL/min/kg; in data set [5] it was < 13.8 mL/min/kg. This compound also showed a solubility at 24 h in “Kinetic solubility” of 39 µM (≈ 14.2 µg/mL).
